Laboratory results as given in ChEMBL document CHEMBL1125116 (J Med Chem, 1990).

Biological target: D(2) dopamine receptor (Rattus norvegicus, UniProt P61169)
Assay: Evaluated in vitro for the affinity towards Dopamine receptor D2 of rat striatal tissue

D(2) dopamine receptor, sequence (P61169 whole entry): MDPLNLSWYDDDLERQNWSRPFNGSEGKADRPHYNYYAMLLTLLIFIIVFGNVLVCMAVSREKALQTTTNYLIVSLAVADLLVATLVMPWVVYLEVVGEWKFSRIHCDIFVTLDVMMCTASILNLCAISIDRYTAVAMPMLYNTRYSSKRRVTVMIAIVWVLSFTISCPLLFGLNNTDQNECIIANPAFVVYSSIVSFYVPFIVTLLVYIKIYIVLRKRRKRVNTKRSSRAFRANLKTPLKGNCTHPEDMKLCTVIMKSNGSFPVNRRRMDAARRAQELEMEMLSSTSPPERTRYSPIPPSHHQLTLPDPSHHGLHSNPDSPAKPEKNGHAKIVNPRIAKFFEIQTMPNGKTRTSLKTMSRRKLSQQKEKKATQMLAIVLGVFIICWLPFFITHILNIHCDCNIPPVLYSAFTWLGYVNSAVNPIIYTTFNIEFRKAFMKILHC

| Kd [nM] | Compound |
| --- | --- |
| 14 | COc1cc(N=[N+]=[N-])c(I)cc1C(=O)NC1CCN(Cc2ccccc2)CC1 [IODOAZIDOCLEBOPRIDE] |
| 1.5 | CCN1CCC[C@H]1CNC(=O)c1c(OC)ccc(S(N)(=O)=O)c1I [IODOSULPIRIDE] |
